≈ marks a conversion by molar mass, not a printed value.
Tests used:
Format in all cases: functional
[1] = test system: Pichia kudriavzevii; assay: Minimum inhibitory concentration required for antifungal activity against Issatchenkia orientalis DSM 6128 strain
[2] = Ratio of MFC99/MIC for antifungal activity against Candida tropicalis DSM 1346 strain was determined
[3] = test system: Candida albicans; assay: Minimum fungicidal concentration required for antifungal activity against Candida albicans ATCC 10231 strain
[4] = test system: Candida tropicalis; assay: Minimum fungicidal concentration required for antifungal activity against Candida tropicalis DSM 1346 strain
[5] = test system: Candida tropicalis; assay: Minimum inhibitory concentration required for antifungal activity against Candida tropicalis DSM 1346 strain
[6] = test system: Cryptococcus neoformans; assay: Minimum inhibitory concentration required for antifungal activity against Cryptococcus neoformans DSM 70219 strain
[7] = Ratio of MFC99/MIC for antifungal activity against Cryptococcus neoformans DSM 70219 strain was determined
[8] = test system: Nakaseomyces glabratus; assay: Minimum fungicidal concentration required for antifungal activity against Candida glabrata DSM 6425 strain
[9] = Ratio of MFC99/MIC for antifungal activity against Issatchenkia orientalis DSM 6128 strain was determined
[10] = test system: Pichia kudriavzevii; assay: Minimum fungicidal concentration required for antifungal activity against Issatchenkia orientalis DSM 6128 strain
[11] = Ratio of MFC99/MIC for antifungal activity against Candida glabrata DSM 6425 strain was determined
[12] = test system: Nakaseomyces glabratus; assay: Minimum inhibitory concentration required for antifungal activity against Candida glabrata DSM 6425 strain
[13] = test system: Candida albicans; assay: Minimum inhibitory concentration required for antifungal activity against Candida albicans ATCC 10231 strain
[14] = test system: Cryptococcus neoformans; assay: Minimum fungicidal concentration required for antifungal activity against Cryptococcus neoformans DSM 70219 strain
[15] = Ratio of MFC99/MIC for antifungal activity against Candida albicans ATCC 10231 strain was determined

Row | Structure (SMILES) | MIC [1] | Ratio [2] | MFC99 [3] | MFC99 [4] | MIC [5] | MIC [6] | Ratio [7] | MFC99 [8] | Ratio [9] | MFC99 [10] | Ratio [11] | MIC [12] | MIC [13] | MFC99 [14] | Ratio [15]
1 | N#Cc1ccccc1/N=c1\ssnc1Cl | 16 µg/mL (≈ 63.1 µM) | 1 | 16 µg/mL (≈ 63.1 µM) | 16 µg/mL (≈ 63.1 µM) | 16 µg/mL (≈ 63.1 µM) | 16 µg/mL (≈ 63.1 µM) | 1 | 16 µg/mL (≈ 63.1 µM) | 1 | 16 µg/mL (≈ 63.1 µM) | 1 | 16 µg/mL (≈ 63.1 µM) | 16 µg/mL (≈ 63.1 µM) | 16 µg/mL (≈ 63.1 µM) | 1
2 | COc1ccccc1/N=c1\ssnc1Cl | 16 µg/mL (≈ 61.8 µM) | 1 | 16 µg/mL (≈ 61.8 µM) | 16 µg/mL (≈ 61.8 µM) | 16 µg/mL (≈ 61.8 µM) | 8 µg/mL (≈ 30.9 µM) | 2 | 16 µg/mL (≈ 61.8 µM) | 1 | 16 µg/mL (≈ 61.8 µM) | 1 | 16 µg/mL (≈ 61.8 µM) | 16 µg/mL (≈ 61.8 µM) | 16 µg/mL (≈ 61.8 µM) | 1
3 | COC(=O)c1ccccc1/N=c1\ssnc1Cl | 16 µg/mL (≈ 55.8 µM) | 1 | 16 µg/mL (≈ 55.8 µM) | 16 µg/mL (≈ 55.8 µM) | 16 µg/mL (≈ 55.8 µM) | 32 µg/mL (≈ 112 µM) | 1 | 32 µg/mL (≈ 112 µM) | 2 | 32 µg/mL (≈ 112 µM) | 2 | 16 µg/mL (≈ 55.8 µM) | 16 µg/mL (≈ 55.8 µM) | 32 µg/mL (≈ 112 µM) | 1
4 | COc1cc(/N=c2\ssnc2Cl)cc(OC)c1OC | 16 µg/mL (≈ 50.2 µM) | 2 | 16 µg/mL (≈ 50.2 µM) | 32 µg/mL (≈ 100 µM) | 16 µg/mL (≈ 50.2 µM) | 16 µg/mL (≈ 50.2 µM) | 2 | 16 µg/mL (≈ 50.2 µM) | 2 | 32 µg/mL (≈ 100 µM) | 1 | 16 µg/mL (≈ 50.2 µM) | 16 µg/mL (≈ 50.2 µM) | 32 µg/mL (≈ 100 µM) | 1
5 | OC(Cn1cncn1)(Cn1cncn1)c1ccc(F)cc1F [FLUCONAZOLE] | 16 µg/mL (≈ 52.2 µM) | >32 | >128 µg/mL | >128 µg/mL | 4 µg/mL (≈ 13.1 µM) | 4 µg/mL (≈ 13.1 µM) | >32 | >128 µg/mL | 4 | 64 µg/mL (≈ 209 µM) | >32 | 4 µg/mL (≈ 13.1 µM) | 2 µg/mL (≈ 6.53 µM) | >128 µg/mL | >64

Reference: ChEMBL document CHEMBL1129179, “Antimicrobial evaluation of 3,1-benzoxazin-4-ones, 3,1-benzothiazin-4-ones, 4-alkoxyquinazolin-2-carbonitriles and N-arylimino-1,2,3-dithiazoles” (1996)
